In brackets after ≈: the same amount, converted by molar mass. Where two headings read alike, the source gives them in different places.
Tests used:
S. aureus J-109 = experiment: In vitro antibacterial activity (MIC), agar dilution technique; assay type: cell-based; details: Staphylococcus aureus
Experimental: (§1) The in vitro antibacterial activity of the compounds of the present invention against various test bacteria was measured by an agar dilution technique using sensitivity test agar (Eiken) as a test medium according to the MIC method specified by the Japan Chemotherapeutic Society.
(§2) The results are represented by the MIC value (minimum inhibitory concentration to microorganisms, mcg/ml), and shown in Table 1.

S. aureus B1 = experiment: as above; assay type: cell-based; details: Staphylococcus aureus
Experimental: as §1, §2

[1] = in vivo; cited from earlier work
[2] = J109, S. aureus J-109, agar dilution, sensitivity test agar (Eiken), read-out: MIC value
[3] = S. aureus B1, agar dilution, sensitivity test agar (Eiken), read-out: MIC value

With `CC[C@H]1OC(=O)[C@H](C)[C@@H](O[C@H]2C[C@@](C)(OC)[C@@H](O)[C@H](C)O2)[C@H](C)[C@@H](O[C@@H]2O[C@H](C)C[C@H](N(C)C)[C@H]2O)[C@](C)(OC)C[C@@H](C)C(=NOCc2c3ccccc3cc3ccccc23)[C@H](C)[C@@H](O)[C@]1(C)O` [A] the MIC (S. aureus J-109; [2]) was 6.25 µg/mL (≈ 6.56 µM) and the MIC (S. aureus B1; [3]) was 6.25 µg/mL (≈ 6.56 µM).

`CC[C@H]1OC(=O)[C@H](C)[C@@H](O[C@H]2C[C@@](C)(OC)[C@@H](O)[C@H](C)O2)[C@H](C)[C@@H](O[C@@H]2O[C@H](C)C[C@H](N(C)C)[C@H]2O)[C@](C)(OC)C[C@@H](C)C(=NOCc2ccc(C(C)(C)C)cc2)[C@H](C)[C@@H](O)[C@]1(C)O` [B] gave an MIC (S. aureus J-109; [2]) of 6.25 µg/mL (≈ 6.87 µM) and an MIC (S. aureus B1; [3]) of 6.25 µg/mL (≈ 6.87 µM).

In the case of `CC[C@H]1OC(=O)[C@H](C)[C@@H](O[C@H]2C[C@@](C)(OC)[C@@H](O)[C@H](C)O2)[C@H](C)[C@@H](O[C@@H]2O[C@H](C)C[C@H](N(C)C)[C@H]2O)[C@](C)(OC)C[C@@H](C)C(=NOCc2c(C)cc(C)cc2C)[C@H](C)[C@@H](O)[C@]1(C)O` [Compound No. 1, 6-0-methylerythromycin A 9-[0-(2,4,6-trimethylbenzyl)oxime]], the MIC (S. aureus J-109; [2]) is reported as 6.25 µg/mL (≈ 6.98 µM) and the MIC (S. aureus B1; [3]) is reported as 6.25 µg/mL (≈ 6.98 µM).

Work on `CC[C@H]1OC(=O)[C@H](C)[C@@H](O[C@H]2C[C@@](C)(OC)[C@@H](O)[C@H](C)O2)[C@H](C)[C@@H](O[C@@H]2O[C@H](C)C[C@H](N(C)C)[C@H]2O)[C@](C)(OC)C[C@@H](C)C(=NOCc2c(F)cccc2F)[C@H](C)[C@@H](O)[C@]1(C)O` [Compound No. 8] yielded an MIC (S. aureus J-109; [2]) of 12.5 µg/mL (≈ 14.1 µM) and an MIC (S. aureus B1; [3]) of 12.5 µg/mL (≈ 14.1 µM).

With `CC[C@H]1OC(=O)[C@H](C)[C@@H](O[C@H]2C[C@@](C)(OC)[C@@H](O)[C@H](C)O2)[C@H](C)[C@@H](O[C@@H]2O[C@H](C)C[C@H](N(C)C)[C@H]2O)[C@](C)(OC)C[C@@H](C)C(=NOCC2CC3CCC2C3)[C@H](C)[C@@H](O)[C@]1(C)O` (stereo partly shown) [Compound No. 45] the MIC (S. aureus J-109; [2]) was 12.5 µg/mL (≈ 14.3 µM) and the MIC (S. aureus B1; [3]) was 12.5 µg/mL (≈ 14.3 µM).

With `CC[C@H]1OC(=O)[C@H](C)[C@@H](O[C@H]2C[C@@](C)(OC)[C@@H](O)[C@H](C)O2)[C@H](C)[C@@H](O[C@@H]2O[C@H](C)C[C@H](N(C)C)[C@H]2O)[C@](C)(OC)C[C@@H](C)C(=NOCc2ccc(C(C)C)cc2)[C@H](C)[C@@H](O)[C@]1(C)O` [Compound No. 55] the MIC (S. aureus J-109; [2]) was 12.5 µg/mL (≈ 14 µM) and the MIC (S. aureus B1; [3]) was 12.5 µg/mL (≈ 14 µM).

For `CC[C@H]1OC(=O)[C@H](C)[C@@H](O[C@H]2C[C@@](C)(OC)[C@@H](O)[C@H](C)O2)[C@H](C)[C@@H](O[C@@H]2O[C@H](C)C[C@H](N(C)C)[C@H]2O)[C@](C)(OC)C[C@@H](C)C(=NOCCCCc2ccccc2)[C@H](C)[C@@H](O)[C@]1(C)O` [Compound No. 56], the MIC (S. aureus J-109; [2]) was 25 µg/mL (≈ 27.9 µM) and the MIC (S. aureus B1; [3]) was 25 µg/mL (≈ 27.9 µM).

For `CC[C@H]1OC(=O)[C@H](C)[C@@H](O[C@H]2C[C@@](C)(OC)[C@@H](O)[C@H](C)O2)[C@H](C)[C@@H](O[C@@H]2O[C@H](C)C[C@H](N(C)C)[C@H]2O)[C@](C)(OC)C[C@@H](C)C(=NOC(C)c2ccccc2)[C@H](C)[C@@H](O)[C@]1(C)O` (stereo partly shown) [D], the MIC (S. aureus J-109; [2]) was 12.5 µg/mL (≈ 14.4 µM) and the MIC (S. aureus B1; [3]) was 12.5 µg/mL (≈ 14.4 µM).

In the case of `CC[C@H]1OC(=O)[C@H](C)[C@@H](O[C@H]2C[C@@](C)(OC)[C@@H](O)[C@H](C)O2)[C@H](C)[C@@H](O[C@@H]2O[C@H](C)C[C@H](N(C)C)[C@H]2O)[C@](C)(O)C[C@@H](C)C(=O)[C@H](C)[C@@H](O)[C@]1(C)O` [Erythromycin A], the oral absorption [1] is given as “low and inconsistent”.

For `CC[C@H]1OC(=O)[C@H](C)[C@@H](O[C@H]2C[C@@](C)(OC)[C@@H](O)[C@H](C)O2)[C@H](C)[C@@H](O[C@@H]2O[C@H](C)C[C@H](N(C)C)[C@H]2O)[C@](C)(O)C[C@@H](C)C(=O)[C@H](C)[C@@H](O)[C@]1(C)O` [a], the MIC (S. aureus J-109; J109, read-out: MIC value) was greater than 100 µg/mL and the MIC (S. aureus B1; B1, read-out: MIC value) was greater than 100 µg/mL.

`CC[C@H]1OC(=O)[C@H](C)[C@@H](O[C@H]2C[C@@](C)(OC)[C@@H](O)[C@H](C)O2)[C@H](C)[C@@H](O[C@@H]2O[C@H](C)C[C@H](N(C)C)[C@H]2O)[C@](C)(OC)C[C@@H](C)C(=O)[C@H](C)[C@@H](O)[C@]1(C)O` [b] gave an MIC (S. aureus J-109; [2]) greater than 100 µg/mL and an MIC (S. aureus B1; [3]) greater than 100 µg/mL.

For `CC[C@H]1OC(=O)[C@H](C)[C@@H](O[C@H]2C[C@@](C)(OC)[C@@H](O)[C@H](C)O2)[C@H](C)[C@@H](O[C@@H]2O[C@H](C)C[C@H](N(C)C)[C@H]2O)[C@](C)(O)C[C@@H](C)/C(=N\OCOCCOC)[C@H](C)[C@@H](O)[C@]1(C)O` [c], the MIC (S. aureus J-109; [2]) was greater than 100 µg/mL and the MIC (S. aureus B1; [3]) was greater than 100 µg/mL.

For `CC[C@H]1OC(=O)[C@H](C)[C@@H](O[C@H]2C[C@@](C)(OC)[C@@H](O)[C@H](C)O2)[C@H](C)[C@@H](O[C@@H]2O[C@H](C)C[C@H](N(C)C)[C@H]2O)[C@](C)(OC)C[C@@H](C)C(=NOC)[C@H](C)[C@@H](O)[C@]1(C)O` [d], the MIC (S. aureus J-109; [2]) was greater than 100 µg/mL and the MIC (S. aureus B1; [3]) was greater than 100 µg/mL.
